Measured values reported in patent publication US20230265151A1, “GIP/GLP1 CO-AGONIST COMPOUNDS” (priority 2020, published 2023).
Where two headings read alike, the source gives them in different places.

Legend:
Type in all cases: cell-based
[1] = target: T1, hGIPR (Homo sapiens, UniProt P48546); experiment: Functional cAMP formation (HTRF) in HEK-293 clonal cells expressing hGIPR, 0.1% bovine casein, without or with 1.0% human serum albumin; details: for Emax: percent of maximal response to GIP(1-42)NH2; for EC50: geometric mean
T1 construct: expressed in transfected cells
T1 sequence (P48546 22-466): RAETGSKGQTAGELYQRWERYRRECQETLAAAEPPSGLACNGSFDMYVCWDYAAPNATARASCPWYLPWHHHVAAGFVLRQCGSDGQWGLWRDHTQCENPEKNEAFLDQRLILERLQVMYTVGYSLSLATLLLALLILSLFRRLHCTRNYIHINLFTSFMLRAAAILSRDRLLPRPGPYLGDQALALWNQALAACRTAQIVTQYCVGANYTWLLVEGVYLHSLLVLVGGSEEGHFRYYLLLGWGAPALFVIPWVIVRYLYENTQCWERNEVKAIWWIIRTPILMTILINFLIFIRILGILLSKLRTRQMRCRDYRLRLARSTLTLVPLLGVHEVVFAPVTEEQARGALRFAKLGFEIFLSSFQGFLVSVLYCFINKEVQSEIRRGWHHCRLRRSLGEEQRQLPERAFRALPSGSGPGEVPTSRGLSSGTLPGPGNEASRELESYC
Procedure, shortened: (§1)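 Readings of the HTRF 665/620 nm ratio, which falls as cAMP rises, were converted to nM cAMP using a standard curve after 30 min peptide exposure at 37° C.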

[2] = target: T2, hGCGR (Homo sapiens, UniProt P47871); experiment: Functional cAMP formation (HTRF) in HEK-293 clonal cells expressing hGCGR, 0.1% bovine casein, without or with 1.0% human serum albumin; details: 37° C.
T2 construct: expressed in transfected cells
Procedure, shortened: as §1

[3] = target: hGLP-1R (Homo sapiens, UniProt P43220); experiment: Functional cAMP formation (HTRF) in HEK-293 clonal cells expressing hGLP-1R, 0.1% bovine casein, without or with 1.0% human serum albumin; design: expressed in transfected cells; details: for Emax: percent of maximal response to GLP-1(7-36)NH2; for EC50: cAMP, 0.1% bovine casein (no human serum albumin), geometric mean
Procedure, shortened: as §1

[4] = HEK293, read-out: hGIPR Emax, % ± SEM, 0.1% bovine casein and 1.0% human serum albumin, 37° C.
[5] = HEK293, read-out: hGIPR Emax, % ± SEM, cAMP, 37° C., 0.1% bovine casein, arithmetic mean
[6] = hGIPR EC50, nM (SEM, n), cAMP, 37° C., 0.1% bovine casein (no human serum albumin)
[7] = hGCGR EC50, nM (SEM, n), 0.1% bovine casein and 1.0% human serum albumin, geometric mean
[8] = hGCGR EC50, nM (SEM, n), cAMP, 0.1% bovine casein (no human serum albumin), geometric mean
[9] = hGLP-1R EC50, nM (SEM, n), 37° C.

Chain of hGLP-1R (P43220 24-463): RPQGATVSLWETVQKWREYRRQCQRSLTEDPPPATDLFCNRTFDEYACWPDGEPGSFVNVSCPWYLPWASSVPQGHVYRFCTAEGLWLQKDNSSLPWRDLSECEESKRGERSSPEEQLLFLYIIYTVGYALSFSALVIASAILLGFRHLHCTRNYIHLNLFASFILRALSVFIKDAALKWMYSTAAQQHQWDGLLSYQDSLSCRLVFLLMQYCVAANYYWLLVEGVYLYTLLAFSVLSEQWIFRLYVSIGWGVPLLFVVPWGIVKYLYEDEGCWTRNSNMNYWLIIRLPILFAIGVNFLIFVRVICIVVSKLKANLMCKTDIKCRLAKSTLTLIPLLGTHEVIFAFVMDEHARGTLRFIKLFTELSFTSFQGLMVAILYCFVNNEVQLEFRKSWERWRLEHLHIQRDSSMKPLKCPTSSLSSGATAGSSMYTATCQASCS
T2 sequence (P47871 26-477): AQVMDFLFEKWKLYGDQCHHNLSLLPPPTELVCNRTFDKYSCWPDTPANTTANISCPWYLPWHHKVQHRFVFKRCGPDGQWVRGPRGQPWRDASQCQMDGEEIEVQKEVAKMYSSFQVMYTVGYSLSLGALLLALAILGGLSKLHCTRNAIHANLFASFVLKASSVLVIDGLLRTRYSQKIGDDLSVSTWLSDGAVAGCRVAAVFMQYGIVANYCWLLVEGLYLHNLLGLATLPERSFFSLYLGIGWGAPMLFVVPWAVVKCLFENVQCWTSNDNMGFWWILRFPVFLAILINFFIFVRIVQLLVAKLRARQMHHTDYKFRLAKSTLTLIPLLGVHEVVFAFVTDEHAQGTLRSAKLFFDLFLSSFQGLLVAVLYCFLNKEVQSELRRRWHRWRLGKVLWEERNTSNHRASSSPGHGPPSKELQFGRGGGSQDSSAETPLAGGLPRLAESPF

| SMILES | Emax [1, 4] | Emax [1, 5] | EC50 [1, 6] | EC50 [2, 7] | EC50 [2, 8] | Emax ([3]; HEK293, read-out: hGLP-1R Emax, % ± SEM, 0.1% bovine casein and 1.0% human serum albumin, 37° C.) | EC50 [3, 9] | Emax ([1]; HEK293, read-out: hGIPR Emax, % ± SEM, cAMP, 37° C., 0.1% bovine casein and 1.0% human serum albumin) | EC50 ([2]; hGCGR EC50, nM (SEM, n), cAMP, 0.1% bovine casein and 1.0% human serum albumin, geometric mean (SEM, n)) | Emax ([3]; HEK293, read-out: hGLP-1R Emax, % ± SEM, cAMP, 37° C., 0.1% bovine casein and 1.0% human serum albumin) | Emax ([3]; HEK293, read-out: hGLP-1R Emax, % ± SEM, cAMP, 37° C., 0.1% bovine casein, arithmetic mean) | EC50 ([1]; 0.1% bovine casein and 1.0% human serum albumin, 37° C., read-out: hGIPR EC50, nM (SEM, n)) | Emax ([1]; HEK293, 0.1% bovine casein and 1.0% human serum albumin, 37° C., read-out: hGIPR Emax, % ± SEM) | Emax ([1]; HEK293, cAMP, 37° C., 0.1% bovine casein, arithmetic mean, read-out: hGIPR Emax, % ± SEM) | EC50 ([1]; cAMP, 37° C., 0.1% bovine casein (no human serum albumin), read-out: hGIPR EC50, nM (SEM, n)) | EC50 ([2]; 0.1% bovine casein and 1.0% human serum albumin, geometric mean, read-out: hGCGR EC50, nM (SEM, n)) | EC50 ([2]; cAMP, 0.1% bovine casein (no human serum albumin), geometric mean, read-out: hGCGR EC50, nM (SEM, n)) | Emax ([3]; HEK293, 0.1% bovine casein and 1.0% human serum albumin, 37° C., read-out: hGLP-1R Emax, % ± SEM) | EC50 ([3]; 37° C., read-out: hGLP-1R EC50, nM (SEM, n)) |
| --- | --- | --- | --- | --- | --- | --- | --- | --- | --- | --- | --- | --- | --- | --- | --- | --- | --- | --- | --- |
| CC[C@H](C)[C@H](NC(=O)[C@H](CCCN)NC(=O)[C@H](CC(=O)O)NC(=O)[C@H](CC(C)C)NC(=O)[C@](C)(CC(C)C)NC(=O)[C@@H](NC(=O)C(C)(C)NC(=O)[C@H](Cc1ccc(O)cc1)NC(=O)[C@H](CC(=O)O)NC(=O)[C@H](CO)NC(=O)[C@@H](NC(=O)[C@](C)(Cc1ccccc1F)NC(=O)[C@@H](NC(=O)CNC(=O)[C@H](CCC(=O)O)NC(=O)C(C)(C)NC(=O)[C@@H](N)Cc1ccc(O)cc1)[C@@H](C)O)[C@@H](C)O)[C@@H](C)CC)C(=O)N[C@@H](C)C(=O)N[C@@H](CCC(N)=O)C(=O)NC(C)(C)C(=O)N[C@@H](CCC(=O)O)C(=O)N[C@@H](Cc1ccccc1)C(=O)N[C@H](C(=O)N[C@@H](CCCCNC(=O)COCCOCCNC(=O)COCCOCCNC(=O)CC[C@H](NC(=O)CCCCCCCCCCOc1ccc(C(=O)O)cc1)C(=O)O)C(=O)N[C@@](C)(Cc1ccc(O)cc1)C(=O)N[C@@H](CC(C)C)C(=O)N[C@H](C(=O)N[C@@H](CCCCNC(=O)COCCOCCNC(=O)COCCOCCNC(=O)CC[C@H](NC(=O)CCCCCCCCCCOc1ccc(C(=O)O)cc1)C(=O)O)C(=O)NCC(=O)NCC(=O)N1CCC[C@H]1C(=O)N[C@@H](CO)C(=O)N[C@@H](CO)C(=O)NCC(=O)N[C@@H](C)C(=O)N1CCC[C@H]1C(=O)N1CCC[C@H]1C(=O)N1CCC[C@H]1C(=O)N[C@@H](CO)C(N)=O)[C@@H](C)CC)[C@@H](C)CC [Example 312] | 89.5% | 105% | 0.00757 nM | > 9950 nM | > 9950 nM | 112% | 0.663 nM | – | – | – | – | – | – | – | – | – | – | – | – |
| CCCC[C@H](NC(=O)[C@H](CC(=O)O)NC(=O)[C@H](CO)NC(=O)[C@@H](NC(=O)[C@](C)(Cc1ccccc1F)NC(=O)[C@@H](NC(=O)CNC(=O)[C@H](CCC(=O)O)NC(=O)C(C)(C)NC(=O)[C@@H](N)Cc1ccc(O)cc1)[C@@H](C)O)[C@@H](C)O)C(=O)N[C@@H](CO)C(=O)N[C@H](C(=O)N[C@@](C)(CC(C)C)C(=O)N[C@@H](CC(C)C)C(=O)N[C@@H](CC(=O)O)C(=O)N[C@@H](CCCN)C(=O)N[C@@H](CCCCNC(=O)COCCOCCNC(=O)COCCOCCNC(=O)CC[C@H](NC(=O)CCCCCCCCCOc1ccc(C(=O)O)cc1)C(=O)O)C(=O)N[C@@H](C)C(=O)N[C@@H](CCC(N)=O)C(=O)NC(C)(C)C(=O)N[C@@H](CCCCNC(=O)COCCOCCNC(=O)COCCOCCNC(=O)CC[C@H](NC(=O)CCCCCCCCCOc1ccc(C(=O)O)cc1)C(=O)O)C(=O)N[C@@H](Cc1ccccc1)C(=O)N[C@H](C(=O)N[C@H](CCC(=O)O)C(=O)N[C@@](C)(Cc1ccc(O)cc1)C(=O)N[C@@H](CC(C)C)C(=O)N[C@H](C(=O)N[C@@H](CCC(=O)O)C(=O)NCC(=O)NCC(=O)N1CCC[C@H]1C(=O)N[C@@H](CO)C(=O)N[C@@H](CO)C(=O)NCC(=O)N[C@@H](C)C(=O)N1CCC[C@H]1C(=O)N1CCC[C@H]1C(=O)N1CCC[C@H]1C(=O)N[C@@H](CO)C(N)=O)[C@@H](C)CC)[C@@H](C)CC)[C@@H](C)CC [Example 321] | 94.5% | – | 0.0107 nM | > 9950 nM | > 9950 nM | – | 0.295 nM | – | – | – | – | – | – | – | – | – | – | – | – |
| CC[C@H](C)[C@H](NC(=O)[C@H](CCCN)NC(=O)[C@H](CC(=O)O)NC(=O)[C@H](CC(C)C)NC(=O)[C@](C)(CC(C)C)NC(=O)[C@@H](NC(=O)C(C)(C)NC(=O)[C@H](Cc1ccncc1)NC(=O)[C@H](CC(=O)O)NC(=O)[C@H](CO)NC(=O)[C@@H](NC(=O)[C@](C)(Cc1ccccc1F)NC(=O)[C@@H](NC(=O)CNC(=O)[C@H](CCC(=O)O)NC(=O)C(C)(C)NC(=O)[C@@H](N)Cc1ccc(O)cc1)[C@@H](C)O)[C@@H](C)O)[C@@H](C)CC)C(=O)N[C@@H](C)C(=O)N[C@@H](CCC(N)=O)C(=O)NC(C)(C)C(=O)N[C@@H](CCC(=O)O)C(=O)N[C@@H](Cc1ccccc1)C(=O)N[C@H](C(=O)N[C@@H](CCCCNC(=O)COCCOCCNC(=O)COCCOCCNC(=O)COCCOCCNC(=O)CC[C@H](NC(=O)CCCCCCCCCOc1ccc(C(=O)O)cc1)C(=O)O)C(=O)N[C@@](C)(Cc1ccc(O)cc1)C(=O)N[C@@H](CC(C)C)C(=O)N[C@H](C(=O)N[C@@H](CCCCNC(=O)COCCOCCNC(=O)COCCOCCNC(=O)COCCOCCNC(=O)CC[C@H](NC(=O)CCCCCCCCCOc1ccc(C(=O)O)cc1)C(=O)O)C(=O)NCC(=O)NCC(=O)N1CCC[C@H]1C(=O)N[C@@H](CO)C(=O)N[C@@H](CO)C(=O)NCC(=O)N[C@@H](C)C(=O)N1CCC[C@H]1C(=O)N1CCC[C@H]1C(=O)N1CCC[C@H]1C(=O)N[C@@H](CO)C(N)=O)[C@@H](C)CC)[C@@H](C)CC [Example 345] | – | 98.9% | 0.0147 nM | – | > 9950 nM | – | 0.285 nM | 86.8% | > 9950 nM | 110% | 105% | – | – | – | – | – | – | – | – |
| CC[C@H](C)[C@H](NC(=O)[C@H](CCCN)NC(=O)[C@H](CC(=O)O)NC(=O)[C@H](CC(C)C)NC(=O)[C@](C)(CC(C)C)NC(=O)[C@@H](NC(=O)C(C)(C)NC(=O)[C@@H](NC(=O)[C@H](CC(=O)O)NC(=O)[C@H](CO)NC(=O)[C@@H](NC(=O)[C@](C)(Cc1ccccc1F)NC(=O)[C@@H](NC(=O)CNC(=O)[C@H](CCC(=O)O)NC(=O)C(C)(C)NC(=O)[C@@H](N)Cc1ccc(O)cc1)[C@@H](C)O)[C@@H](C)O)C(C)C)[C@@H](C)CC)C(=O)N[C@@H](C)C(=O)N[C@@H](CCC(N)=O)C(=O)NC(C)(C)C(=O)N[C@@H](CCCN)C(=O)N[C@@H](Cc1ccccc1)C(=O)N[C@H](C(=O)N[C@@H](CCCCNC(=O)COCCOCCNC(=O)COCCOCCNC(=O)CC[C@H](NC(=O)CCCCCCCCCCCCC(=O)O)C(=O)O)C(=O)N[C@@](C)(Cc1ccc(O)cc1)C(=O)N[C@@H](CC(C)C)C(=O)N[C@H](C(=O)N[C@@H](CCCCNC(=O)COCCOCCNC(=O)COCCOCCNC(=O)CC[C@H](NC(=O)CCCCCCCCCCCCC(=O)O)C(=O)O)C(=O)NCC(=O)NCC(=O)N1CCC[C@H]1C(=O)N[C@@H](CO)C(=O)N[C@@H](CO)C(=O)NCC(=O)N[C@@H](C)C(=O)N1CCC[C@H]1C(=O)N1CCC[C@H]1C(=O)N1CCC[C@H]1C(=O)N[C@@H](CO)C(N)=O)[C@@H](C)CC)[C@@H](C)CC [Example 317] | – | – | – | – | – | – | – | – | – | – | – | 2.03 nM | 84.4% | 112% | 0.0587 nM | > 9950 nM | > 9950 nM | 98.1% | 1.34 nM |
